Assay results from ChEMBL document CHEMBL2440076, “New triarylpyrazoles as broad-spectrum anticancer agents: design, synthesis, and biological evaluation” (Eur J Med Chem, 2013).

Legend:
MDA-MB-468 [1] = test: Growth inhibition of human MDA-MB-468 cells assessed as cell growth at 10 uM after 48 hrs by sulforhodamine B assay; format: functional; details: MDA-MB-468, 48 h, read-out: Activity
MDA-MB-231 = test: Growth inhibition of human MDA-MB-231 cells assessed as cell growth at 10 uM after 48 hrs by sulforhodamine B assay; format: functional; details: MDA-MB-231, 48 h, read-out: Activity
TK-10 [2] = test: Growth inhibition of human TK10 cells assessed as cell growth at 10 uM after 48 hrs by sulforhodamine B assay; format: functional; details: TK-10, 48 h, read-out: Activity
KM12 = test: Growth inhibition of human KM12 cells after 48 hrs by sulforhodamine B assay; format: functional, cell-based; details: KM12, 48 h
NCI-H322M = test: Growth inhibition of human NCI-H322M cells after 48 hrs by sulforhodamine B assay; format: functional
NCI-H226 = test: Growth inhibition of human NCI-H226 cells after 48 hrs by sulforhodamine B assay; format: functional; details: NCI-H226, 48 h
HOP-92 [3] = test: Growth inhibition of human HOP92 cells after 48 hrs by sulforhodamine B assay; format: functional, cell-based; details: HOP-92, 48 h
A549 [4] = test: Growth inhibition of human A549/ATCC cells after 48 hrs by sulforhodamine B assay; format: functional; details: A549, 48 h
RPMI-8226 = test: Growth inhibition of human RPMI8226 cells after 48 hrs by sulforhodamine B assay; format: functional, cell-based; details: RPMI-8226, 48 h
K562 [5] = test: Growth inhibition of human K562 cells after 48 hrs by sulforhodamine B assay; format: functional; details: K562, 48 h
HL-60(TB) = test: Growth inhibition of human HL-60(TB) cells after 48 hrs by sulforhodamine B assay; format: functional; details: HL-60, 48 h
RXF 393 = test: Growth inhibition of human RXF393 cells assessed as cell growth at 10 uM after 48 hrs by sulforhodamine B assay; format: functional; details: RXF 393, 48 h, read-out: Activity
IGROV-1 = test: Growth inhibition of human IGROV1 cells assessed as cell growth at 10 uM after 48 hrs by sulforhodamine B assay; format: functional; details: IGROV-1, 48 h, read-out: Activity
SK-MEL-2 [6] = test: Growth inhibition of human SK-MEL-2 cells assessed as cell growth at 10 uM after 48 hrs by sulforhodamine B assay; format: functional; details: SK-MEL-2, 48 h, read-out: Activity
Malme-3M = test: Growth inhibition of human MALME-3M cells assessed as cell growth at 10 uM after 48 hrs by sulforhodamine B assay; format: functional; details: read-out: Activity
SNB-19 = test: Growth inhibition of human SNB19 cells assessed as cell growth at 10 uM after 48 hrs by sulforhodamine B assay; format: functional; details: SNB-19, 48 h, read-out: Activity
HCT-15 = test: Growth inhibition of human HCT15 cells assessed as cell growth at 10 uM after 48 hrs by sulforhodamine B assay; format: functional; details: HCT-15, 48 h, read-out: Activity
[7] = Growth inhibition of human HCC2998 cells assessed as cell growth at 10 uM after 48 hrs by sulforhodamine B assay; format: functional; details: HCC 2998, 48 h, read-out: Activity
NCI-H460 = test: Growth inhibition of human NCI-H460 cells assessed as cell growth at 10 uM after 48 hrs by sulforhodamine B assay; format: functional; details: NCI-H460, 48 h, read-out: Activity
HOP-92 [8] = test: Growth inhibition of human HOP92 cells assessed as cell growth at 10 uM after 48 hrs by sulforhodamine B assay; format: functional; details: HOP-92, 48 h, read-out: Activity
MDA-MB-468 [9] = test: Growth inhibition of human MDA-MB-468 cells after 48 hrs by sulforhodamine B assay; format: functional, cell-based; details: MDA-MB-468, 48 h
T47D = test: Growth inhibition of human T47D cells after 48 hrs by sulforhodamine B assay; format: functional
[10] = Growth inhibition of human Hs 578T cells after 48 hrs by sulforhodamine B assay; format: functional
MCF7 = test: Growth inhibition of human MCF7 cells after 48 hrs by sulforhodamine B assay; format: functional; details: MCF7, 48 h
DU-145 = test: Growth inhibition of human DU145 cells after 48 hrs by sulforhodamine B assay; format: functional; details: DU-145, 48 h
TK-10 [11] = test: Growth inhibition of human TK10 cells after 48 hrs by sulforhodamine B assay; format: functional; details: TK-10, 48 h
SN12C = test: Growth inhibition of human SN12C cells after 48 hrs by sulforhodamine B assay; format: functional
OVCAR-3 = test: Growth inhibition of human OVCAR3 cells after 48 hrs by sulforhodamine B assay; format: functional, cell-based; details: OVCAR-3, 48 h
SK-MEL-2 [12] = test: Growth inhibition of human SK-MEL-2 cells after 48 hrs by sulforhodamine B assay; format: functional; details: SK-MEL-2, 48 h
LOX IMVI = test: Growth inhibition of human LOXIMVI cells after 48 hrs by sulforhodamine B assay; format: functional
SNB-75 = test: Growth inhibition of human SNB75 cells after 48 hrs by sulforhodamine B assay; format: functional; details: SNB-75, 48 h
A549 [13] = test: Growth inhibition of human A549/ATCC cells assessed as cell growth at 10 uM after 48 hrs by sulforhodamine B assay; format: functional; details: A549, 48 h, read-out: Activity
K562 [14] = test: Growth inhibition of human K562 cells assessed as cell growth at 10 uM after 48 hrs by sulforhodamine B assay; format: functional; details: K562, 48 h, read-out: Activity
CCRF-CEM = test: Growth inhibition of human CCRF-CEM cells assessed as cell growth at 10 uM after 48 hrs by sulforhodamine B assay; format: functional; details: read-out: Activity
[15] = read-out: LC50 (the source's name)

`O=C(Nc1cccc(-n2cc(-c3ccncc3)c(-c3ccc(Cl)c(O)c3)n2)c1)Nc1cccc(C(F)(F)F)c1` showed a growth at 10 µM (MDA-MB-468 [1]) of 10.5%, a growth at 10 µM (MDA-MB-231) of 21.3% and a growth at 10 µM (TK-10 [2]) of 21.9%. For the same compound, the GI50 (KM12) was 1.33 µM, the TGI (KM12) was greater than 32.5 µM and the CC50 (KM12; [15]) was greater than 32.5 µM. For the same compound, the GI50 (NCI-H322M) was 6.41 µM, the TGI (NCI-H322M) was greater than 32.5 µM and the CC50 (NCI-H322M; [15]) was greater than 32.5 µM. For the same compound, the GI50 (NCI-H226) was 7.35 µM, the TGI (NCI-H226) was greater than 32.5 µM and the CC50 (NCI-H226; [15]) was greater than 32.5 µM. It also gave a GI50 (HOP-92 [3]) of 0.509 µM, an IC50 (HOP-92 [3]) of 0.51 µM and an LC50 (HOP-92 [3]) greater than 32.5 µM. It also gave a TGI (HOP-92 [3]) of 2.23 µM, a GI50 (A549 [4]) of 1.37 µM and an LC50 (concentration killing 50% of starting cells) (A549 [4]) greater than 32.5 µM. For the same compound, the TGI (A549 [4]) was greater than 32.5 µM, the GI50 (RPMI-8226) was 1.34 µM and the IC50 (RPMI-8226) was 1.34 µM. The TGI (RPMI-8226) was greater than 32.5 µM, the CC50 (RPMI-8226; [15]) was greater than 32.5 µM and the GI50 (K562 [5]) was 1.44 µM. It also gave a TGI (K562 [5]) greater than 32.5 µM, a CC50 (K562 [5]; [15]) greater than 32.5 µM and a GI50 (HL-60(TB)) of 1.45 µM. It also gave a TGI (HL-60(TB)) greater than 32.5 µM, a CC50 (HL-60(TB); [15]) greater than 32.5 µM and a growth at 10 µM (RXF 393) of 31.3%. The growth at 10 µM (IGROV-1) was 28.6%, the growth at 10 µM (SK-MEL-2 [6]) was -25.6% and the growth at 10 µM (Malme-3M) was 1.16%. For the same compound, the growth at 10 µM (SNB-19) was 32.5%, the growth at 10 µM (HCT-15) was 18.2% and the growth at 10 µM [7] was 40.1%. The growth at 10 µM (NCI-H460) was 7.29%, the growth at 10 µM (HOP-92 [8]) was -17.7% and the GI50 (MDA-MB-468 [9]) was 0.98 µM. It also gave an IC50 (MDA-MB-468 [9]) of 0.98 µM, a TGI (MDA-MB-468 [9]) of 7.83 µM and a CC50 (MDA-MB-468 [9]; [15]) greater than 32.5 µM. The GI50 (T47D) was 2.47 µM, the TGI (T47D) was greater than 32.5 µM and the CC50 (T47D; [15]) was greater than 32.5 µM. The GI50 [10] was 3.31 µM, the TGI [10] was greater than 32.5 µM and the CC50 [10, 15] was greater than 32.5 µM. The GI50 (MCF7) was 1.34 µM, the LC50 (MCF7) was greater than 32.5 µM and the TGI (MCF7) was greater than 32.5 µM. For the same compound, the GI50 (DU-145) was 1.76 µM, the LC50 (DU-145) was greater than 32.5 µM and the TGI (DU-145) was greater than 32.5 µM. For the same compound, the GI50 (TK-10 [11]) was 2.12 µM, the TGI (TK-10 [11]) was greater than 32.5 µM and the CC50 (TK-10 [11]; [15]) was greater than 32.5 µM. It also gave a GI50 (SN12C) of 2.01 µM, a TGI (SN12C) greater than 32.5 µM and a CC50 (SN12C; [15]) greater than 32.5 µM. It also gave a GI50 (OVCAR-3) of 1.06 µM, an IC50 (OVCAR-3) of 1.06 µM and a TGI (OVCAR-3) of 6.13 µM. The CC50 (OVCAR-3; [15]) was greater than 32.5 µM, the GI50 (SK-MEL-2 [12]) was 2.02 µM and the LC50 (50% lethal concentration) (SK-MEL-2 [12]) was greater than 32.5 µM. The TGI (SK-MEL-2 [12]) was 10.8 µM, the GI50 (LOX IMVI) was 2.53 µM and the LC50 (LOX IMVI) was 32.4 µM. For the same compound, the TGI (LOX IMVI) was 9.58 µM, the GI50 (SNB-75) was 3.65 µM and the LC50 (lethal concentration, 50% net cell kill) (SNB-75) was greater than 32.5 µM. The TGI (SNB-75) was greater than 32.5 µM, the growth at 10 µM (A549 [13]) was 5.74% and the growth at 10 µM (K562 [14]) was 13.4%. For the same compound, the growth at 10 µM (CCRF-CEM) was 10.6%.
